This is an account of results in PubChem BioAssay AID790 (SRMLSC, 2007).

Assay [1] in a line: growth inhibition of yeast vps1Δ mutant, dose response, S. cerevisiae, background strain comparison (AID 790). The note with it: S. cerevisiae vps1Δ mutant growth inhibition; measured here: background strain growth inhibition.
The test system of assay [2] is S. cerevisiae vps1Δ mutant growth inhibition. The description is as above.

Active and inactive are the calls of the source. The rule behind the calls is not given here.

One may read the IC50 as the midpoint of a concentration-inhibition curve. Regarding `Cc1ccc(C)c(NS(=O)(=O)c2cc(C(=O)N3CCc4ccccc4C3)ccc2Cl)c1`, the IC50 was 6.88 µM in assay [1] and > 10 µM (inactive) in assay [2].

`CCN(CC)c1ccc(CN2CC=C(c3ccc(F)cc3)CC2)cc1`: the figures for the half-inhibitory concentration (IC50) in assay [1] and in assay [2] were 25.8 µM and > 10 µM (inactive), respectively.

`Cc1cccc2cc(C#N)c(NCCCn3ccnc3)nc12`: the IC50 was more than 10 µM in assay [1] and > 10 µM (inactive) in assay [2].

`O=C(Nc1nnc(-c2ccc(Cl)cc2)o1)c1ccccc1Br`: the IC50 in assay [1] was 13.1 µM; in assay [2] it was 2.37 µM.

In the case of `O=C(NCc1ccc2c(c1)OCO2)c1ccc(-n2cnnn2)cc1`, the IC50 was more than 10 µM in assay [1] and > 10 µM (inactive) in assay [2].

Turning to `O=S(=O)(c1ccc(Cl)cc1)N1CCN(C2CCN(Cc3ccccc3)CC2)CC1`, the IC50 in assay [1] is more than 10 µM; in assay [2], > 10 µM (inactive).

As for `CCc1ccc(N(C(=O)c2csnn2)C(C(=O)NC(C)(C)C)c2ccncc2)cc1` (stereo unspecified), the IC50 was more than 10 µM in assay [1] and > 10 µM (inactive) in assay [2].

In the case of `CCOC(=O)C1CCN(Cc2cnc(Oc3ccc(Cl)cc3C)s2)CC1`, the IC50 in assay [1] was more than 10 µM; in assay [2], > 10 µM (inactive).

As to `O=C(Nc1nnc(C2CC2)o1)c1ccc(S(=O)(=O)N2CCCc3ccccc32)cc1`, the IC50 in assay [1] is 3.17 µM; in assay [2], 11.9 µM (inactive).

On to `COc1ccc(N2CCN(C(=O)CCNS(=O)(=O)c3ccc(Br)s3)CC2)cc1`, for which the figures for the IC50 in assay [1] and in assay [2] were more than 10 µM and > 10 µM (inactive), respectively.

In the case of `CCCn1nc([N+](=O)[O-])c(C(C#N)c2nc3ccccc3s2)c(Cl)c1=O` (stereo unspecified), the IC50 was 2.16 µM in assay [1] and 1.5 µM in assay [2].

For the molecule `O=C(NC(C(=O)c1ccccc1)N1CCCCC1)c1ccccc1` (stereo unspecified), the IC50 in assay [1] was more than 10 µM; in assay [2], > 10 µM (inactive).

In the case of `Cc1ccnc(N2C(=O)c3cccc4c([N+](=O)[O-])ccc(c34)C2=O)c1`, the IC50 in assay [1] is 4.22 µM; in assay [2], 2.86 µM.

Turning to `CC1CC(C)CN(CCOc2ccc(Cl)cc2Cl)C1` (stereo unspecified), the IC50 was more than 10 µM in assay [1] and > 10 µM (inactive) in assay [2].

In the case of `Fc1ccc(Cn2nnc(-c3ccc(CN4CCOCC4)cc3)n2)cc1`, the values for the IC50 in assay [1] and in assay [2] were more than 10 µM and > 10 µM (inactive), respectively.

`Clc1ccc(-c2n[nH]c3c2CCC3)c(Cl)c1`: the figures for the IC50 in assay [1] and in assay [2] were 0.518 µM and 0.219 µM, respectively.

As to `O=C(C1CCN(S(=O)(=O)c2cccs2)CC1)N1CCCCCC1`, the 50% inhibitory concentration (IC50) in assay [1] was more than 10 µM; in assay [2], > 10 µM (inactive).

For `O=[N+]([O-])c1cc(C(F)(F)F)ccc1N/N=C/c1cc2ccccc2nc1Cl`, the IC50 in assay [1] was more than 10 µM; in assay [2], > 10 µM (inactive).

On to `CCOC(=O)COc1ccccc1C1Nc2ccccc2C(=O)N1c1cccc(Cl)c1` (stereo unspecified), for which the IC50 was more than 10 µM in assay [1] and > 10 µM (inactive) in assay [2].

For `O=[N+]([O-])c1ccc(N/N=C/c2c[nH]c3ccccc23)c(S(=O)(=O)Nc2ccc(Cl)cc2)c1`, the IC50 in assay [1] was 2.5 µM; in assay [2], 2.47 µM.

On to `CCOC(=O)c1cc2c(ccn2C)n1CC(=O)N1CCN(c2ccccc2OC)CC1`, for which the IC50 is more than 10 µM in assay [1] and > 10 µM (inactive) in assay [2].

Turning to `COCCNc1cc(C)nc2c3c(C)cc(C)nc3nn12`, the values for the IC50 in assay [1] and in assay [2] were more than 10 µM and > 10 µM (inactive), respectively.

`O=C(NCc1ccc2c(c1)OCO2)c1ccc(CS(=O)(=O)c2cccc(C(F)(F)F)c2)o1`: the IC50 in assay [1] is more than 10 µM; in assay [2] it was > 10 µM (inactive).

Regarding `Clc1ccc(-c2n[nH]c3c2CCC3)cc1Cl`, the 50% inhibitory concentration (IC50) in assay [1] is 1.81 µM; in assay [2], 1.07 µM.

With `CC1CN(CCCCOc2ccc(C(C)C)cc2)CC(C)O1` (stereo unspecified), the IC50 was more than 10 µM in assay [1] and > 10 µM (inactive) in assay [2].

As to `CCOC(=O)C(NC(C)=O)(Nc1ccc(S(=O)(=O)Nc2onc(C)c2C)cc1)C(F)(F)F` (stereo unspecified), the IC50 in assay [1] is more than 10 µM; in assay [2], > 10 µM (inactive).

Regarding `CCCCSCCCNC(=O)Nc1cccc(OC)c1`, the IC50 is more than 10 µM in assay [1] and > 10 µM (inactive) in assay [2].

`COc1ccc(C2=NC(C(F)(F)F)(C(F)(F)F)c3c(n(C)c(=O)n(C)c3=O)N2)cc1`: the IC50 in assay [1] is more than 10 µM; in assay [2], > 10 µM (inactive).

For the molecule `Cc1nc(NC(=O)c2ccccc2)sc1-c1csc(NCc2ccccc2)n1`, the IC50 in assay [1] is more than 10 µM; in assay [2], 1.96 µM.

For the molecule `CCOc1cc(/C=C\[N+](=O)[O-])ccc1OCC(=O)Nc1ccccc1C`, the IC50 was more than 10 µM in assay [1] and 25.4 µM in assay [2].

For the molecule `O=c1cccc2n1CC1CC2CN(S(=O)(=O)c2ccccc2)C1` (stereo unspecified), the IC50 in assay [1] was more than 10 µM; in assay [2] it was > 10 µM (inactive).

As for `Cc1ccn2cc(-c3nonc3C)cc2c1`, the IC50 in assay [1] was more than 10 µM; in assay [2], > 10 µM (inactive).

Regarding `COc1ccc(C2C3=C(CCCC3=O)Nc3nc(-c4cc(OC)c(OC)c(OC)c4)nn32)cc1OC` (stereo unspecified), the IC50 was more than 10 µM in assay [1] and > 10 µM (inactive) in assay [2].

Take `CC(C)Cc1[nH]c(=O)c(C#N)c2c1CCC2`: the IC50 is more than 10 µM in assay [1] and > 10 µM (inactive) in assay [2].

`O=C1OCC(CO)(CO)N=C1NNc1ccc(Cl)c(Cl)c1`: the values for the IC50 in assay [1] and in assay [2] were 3.35 µM and 2.43 µM, respectively.

On to `O=Cc1cc2ccccc2nc1SCc1ccc(Cl)cc1`, for which the IC50 is more than 10 µM in assay [1] and > 10 µM (inactive) in assay [2].

For `CCOC(=O)NC(Nc1ccc(S(N)(=O)=O)cc1)(C(=O)OCC)C(F)(F)F` (stereo unspecified), the IC50 in assay [1] was more than 10 µM; in assay [2], > 10 µM (inactive).

In the case of `COc1ccccc1N1CCN(Cc2ccccc2F)CC1`, the IC50 in assay [1] is more than 10 µM; in assay [2], > 10 µM (inactive).

As to `CCOCCCNC(=O)c1cc2sc(Cl)cc2n1CC`, the IC50 in assay [1] is more than 10 µM; in assay [2] it was > 10 µM (inactive).

For the molecule `Cc1ccc(Cl)c(OCCCCN(C)Cc2ccccc2)c1`, the IC50 is more than 10 µM in assay [1] and > 10 µM (inactive) in assay [2].

Turning to `O=C1c2cccc3c([N+](=O)[O-])ccc(c23)C(=O)N1c1ccc(Cl)cn1`, the IC50 in assay [1] is 6.08 µM; in assay [2], 8.74 µM (inactive).

Regarding `O=C(N/N=C/c1ccc([N+](=O)[O-])o1)c1cc(-c2cccc(Br)c2)nc2ccccc12`, the IC50 was 4.65 µM in assay [1] and 0.918 µM in assay [2].

Regarding `CCn1c(-c2c[nH]c3ccccc23)n[nH]c1=S`, the half-maximal inhibitory concentration (IC50) in assay [1] is more than 10 µM; in assay [2] it was > 10 µM (inactive).

Turning to `c1ccc(-c2ccc(-c3cnc4n3CCCCC4)cc2)cc1`, the results for the IC50 in assay [1] and in assay [2] were more than 10 µM and > 10 µM (inactive), respectively.

`O=C(Cn1nnc(-c2ccc(S(=O)(=O)N3CCCC3)cc2)n1)NCC1CCCO1` (stereo unspecified): the IC50 in assay [1] was more than 10 µM; in assay [2], > 10 µM (inactive).

For the molecule `O=C1OCC2=C1C(c1ccc(F)cc1)Sc1ccccc1N2` (stereo unspecified), the IC50 in assay [1] was more than 10 µM; in assay [2] it was 14.4 µM.

Regarding `CCOC(=O)C1=C(N)N2C(=O)C(C)SC2=C(C(=O)OC)C1c1ccccc1OC` (stereo unspecified), the IC50 in assay [1] is 0.163 µM; in assay [2], > 10 µM (inactive).

With `Cc1ccc(S(=O)(=O)N(CC(=O)N2CCC(C(N)=O)CC2)c2cccc(C(F)(F)F)c2)cc1`, the IC50 in assay [1] is more than 10 µM; in assay [2], > 10 µM (inactive).
